# Test system: MV-4-11 cells
# Experiment: Gene expression microarray analysis (Affymetrix PrimeView) and GSEA
# Type: cell-based, human
# Parameters: RFU PODN (11730768_x_at) / Fold change /veh PODN (11730768_x_at) / RFU LINC00158 (11744669_a_at) / Fold change /veh LINC00158 (11744669_a_at) / RFU DUSP10 (11751237_a_at) / Fold change /veh DUSP10 (11751237_a_at) / RFU ID3 (11757404_x_at) / Fold change /veh ID3 (11757404_x_at) / RFU PLEKHG5 (11737974_s_at) / Fold change /veh PLEKHG5 (11737974_s_at) / RFU LRRC4B (11730491_at) / Fold change /veh LRRC4B (11730491_at) / RFU GIMAP4 (11747438_a_at) / Fold change /veh GIMAP4 (11747438_a_at) / RFU KRT8 (11758183_x_at) / Fold change /veh KRT8 (11758183_x_at) / RFU CNN1 (11734310_a_at) / Fold change /veh CNN1 (11734310_a_at) / RFU VPS37D (11726825_at) / Fold change /veh VPS37D (11726825_at) / RFU C10orf10 (11716522_x_at) / Fold change /veh C10orf10 (11716522_x_at) / RFU KIR2DL2 /// KIR2DL4 /// KIR2DL5A /// KIR2DL5B /// KIR2DS1 /// KIR2DS2 /// KIR2DS3 /// KIR2DS4 /// KIR3DL3 /// KIR3DL3 /// KIR3DS1 (11738374_at) / Fold change /veh KIR2DL2 /// KIR2DL4 /// KIR2DL5A /// KIR2DL5B /// KIR2DS1 /// KIR2DS2 /// KIR2DS3 /// KIR2DS4 /// KIR3DL3 /// KIR3DL3 /// KIR3DS1 (11738374_at) / RFU C1QL1 (11718748_at) / Fold change /veh C1QL1 (11718748_at) / RFU TMPRSS4 (11747572_a_at) / Fold change /veh TMPRSS4 (11747572_a_at) / RFU HAMP (11756126_x_at) / Fold change /veh HAMP (11756126_x_at) / RFU RNFT2 (11725882_a_at) / Fold change /veh RNFT2 (11725882_a_at) / RFU NR4A2 (11747474_a_at) / Fold change /veh NR4A2 (11747474_a_at) / RFU ABCC12 (11746883_a_at) / Fold change /veh ABCC12 (11746883_a_at) / RFU TMEM136 (11760407_x_at) / Fold change /veh TMEM136 (11760407_x_at) / RFU CLDN22 /// WWC2 (11732394_at) / Fold change /veh CLDN22 /// WWC2 (11732394_at) / RFU HLA-DPB1 (11760878_x_at) / Fold change /veh HLA-DPB1 (11760878_x_at) / RFU SPINT1 (11716480_a_at) / Fold change /veh SPINT1 (11716480_a_at) / RFU GAP43 (11754022_s_at) / Fold change /veh GAP43 (11754022_s_at) / RFU A4GNT (11735810_at) / Fold change /veh A4GNT (11735810_at) / RFU PRB3 (11715151_x_at) / Fold change /veh PRB3 (11715151_x_at) / RFU TUBB4B (11761932_at) / Fold change /veh TUBB4B (11761932_at) / RFU CAPN14 (11732068_a_at) / Fold change /veh CAPN14 (11732068_a_at) / RFU TMCC2 (11721928_a_at) / Fold change /veh TMCC2 (11721928_a_at) / RFU IRGQ (11745062_a_at) / Fold change /veh IRGQ (11745062_a_at) / RFU FAM174B (11720279_a_at) / Fold change /veh FAM174B (11720279_a_at) / RFU TMPRSS4 (11748680_a_at) / Fold change /veh TMPRSS4 (11748680_a_at) / RFU FAM212B (11763350_a_at) / Fold change /veh FAM212B (11763350_a_at) / RFU PLEKHG5 (11743358_a_at) / Fold change /veh PLEKHG5 (11743358_a_at) / RFU ZSCAN30 (11745921_a_at) / Fold change /veh ZSCAN30 (11745921_a_at) / RFU CMKLR1 (11741424_a_at) / Fold change /veh CMKLR1 (11741424_a_at) / RFU LOC101060620 /// MAPK8IP1 (11723275_at) / Fold change /veh LOC101060620 /// MAPK8IP1 (11723275_at) / RFU SPTSSB (11747773_x_at) / Fold change /veh SPTSSB (11747773_x_at) / RFU PRSS12 (11739890_at) / Fold change /veh PRSS12 (11739890_at) / RFU BIN1 (11741810_x_at) / Fold change /veh BIN1 (11741810_x_at) / RFU WNT11 (11732464_a_at) / Fold change /veh WNT11 (11732464_a_at) / RFU C10orf10 (11716521_a_at) / Fold change /veh C10orf10 (11716521_a_at) / RFU C5orf56 (11738089_at) / Fold change /veh C5orf56 (11738089_at) / RFU CYB561 (11721691_x_at) / Fold change /veh CYB561 (11721691_x_at) / RFU ANKRD19P (11752326_a_at) / Fold change /veh ANKRD19P (11752326_a_at) / RFU OR2T12 /// OR2T33 /// OR2T8 (11738714_s_at) / Fold change /veh OR2T12 /// OR2T33 /// OR2T8 (11738714_s_at) / RFU VCAN (11748164_a_at) / Fold change /veh VCAN (11748164_a_at) / RFU JSRP1 (11732532_at) / Fold change /veh JSRP1 (11732532_at) / RFU KRTAP10-11 (11738290_x_at) / Fold change /veh KRTAP10-11 (11738290_x_at) / RFU MYO3A (11730013_a_at) / Fold change /veh MYO3A (11730013_a_at) / RFU EBF3 (11725865_a_at) / Fold change /veh EBF3 (11725865_a_at) / RFU CAMK2N1 (11719241_x_at) / Fold change /veh CAMK2N1 (11719241_x_at) / RFU C5orf56 (11738088_a_at) / Fold change /veh C5orf56 (11738088_a_at) / RFU OLFML3 (11715873_a_at) / Fold change /veh OLFML3 (11715873_a_at) / RFU LOC100653217 /// NTM (11731650_a_at) / Fold change /veh LOC100653217 /// NTM (11731650_a_at) / RFU MAPK11 (11762145_a_at) / Fold change /veh MAPK11 (11762145_a_at) / RFU FIZ1 (11724087_x_at) / Fold change /veh FIZ1 (11724087_x_at) / RFU OASL (11726364_x_at) / Fold change /veh OASL (11726364_x_at) / RFU SOX15 (11748057_x_at) / Fold change /veh SOX15 (11748057_x_at) / RFU CD79A (11719716_a_at) / Fold change /veh CD79A (11719716_a_at) / RFU HIST1H1D (11736915_at) / Fold change /veh HIST1H1D (11736915_at) / RFU CASKIN2 (11723855_a_at) / Fold change /veh CASKIN2 (11723855_a_at) / RFU LOC730098 (11760151_x_at) / Fold change /veh LOC730098 (11760151_x_at) / RFU OR4N2 (11742367_at) / Fold change /veh OR4N2 (11742367_at) / RFU PRRT2 (11749266_a_at) / Fold change /veh PRRT2 (11749266_a_at) / RFU SNX32 (11753110_a_at) / Fold change /veh SNX32 (11753110_a_at) / RFU CDHR5 (11726645_a_at) / Fold change /veh CDHR5 (11726645_a_at) / RFU RCAN1 (11760418_a_at) / Fold change /veh RCAN1 (11760418_a_at) / RFU FAM167A (11723789_a_at) / Fold change /veh FAM167A (11723789_a_at) / RFU FAM26E (11764081_at) / Fold change /veh FAM26E (11764081_at) / RFU ISYNA1 (11749810_s_at) / Fold change /veh ISYNA1 (11749810_s_at) / RFU ACY1 (11761880_at) / Fold change /veh ACY1 (11761880_at) / RFU 11764098_at / Fold change /veh 11764098_at / RFU SAMD14 (11745864_x_at) / Fold change /veh SAMD14 (11745864_x_at) / RFU NPB (11741838_a_at) / Fold change /veh NPB (11741838_a_at) / RFU TMPRSS6 (11731388_a_at) / Fold change /veh TMPRSS6 (11731388_a_at) / RFU KRTAP10-2 (11738614_at) / Fold change /veh KRTAP10-2 (11738614_at) / RFU ARHGAP8 /// PRR5-ARHGAP8 (11727945_x_at) / Fold change /veh ARHGAP8 /// PRR5-ARHGAP8 (11727945_x_at) / RFU KRTAP5-7 /// NADSYN1 (11734609_at) / Fold change /veh KRTAP5-7 /// NADSYN1 (11734609_at) / RFU RASL12 (11751679_a_at) / Fold change /veh RASL12 (11751679_a_at) / RFU CDKN2B (11736163_a_at) / Fold change /veh CDKN2B (11736163_a_at) / RFU PRF1 (11729649_at) / Fold change /veh PRF1 (11729649_at) / RFU, ZNF638 /// ZNF638-IT1 / Fold change vs veh, ZNF638 /// ZNF638-IT1 / RFU, PANK3 / Fold change vs veh, PANK3 / RFU, SH3YL1 / Fold change vs veh, SH3YL1 / RFU, ZEB2 / Fold change vs veh, ZEB2 / RFU, NRIP1 / Fold change vs veh, NRIP1 / RFU, PTTG1IP / Fold change vs veh, PTTG1IP / RFU, CAPN2 / Fold change vs veh, CAPN2 / RFU, MED14 / Fold change vs veh, MED14 / RFU, SNORA58 / Fold change vs veh, SNORA58 / RFU, C1orf63 / Fold change vs veh, C1orf63 / RFU, LRRFIP1 / Fold change vs veh, LRRFIP1 / RFU, NDUFAF7 / Fold change vs veh, NDUFAF7 / RFU, SLC12A2 / Fold change vs veh, SLC12A2 / RFU, IBTK / Fold change vs veh, IBTK / RFU, ESF1 / Fold change vs veh, ESF1 / Fold change vs veh, TMEM50B / RFU, TAOK1 / Fold change vs veh, TAOK1 / RFU, ACBD3 / Fold change vs veh, ACBD3 / RFU, TMA16 / Fold change vs veh, TMA16 / RFU, RWDD3 / Fold change vs veh, RWDD3 / RFU, BCAT1 / Fold change vs veh, BCAT1 / RFU, EDEM3 / Fold change vs veh, EDEM3 / RFU, TMEM33 / Fold change vs veh, TMEM33 / RFU, WDR75 / Fold change vs veh, WDR75 / RFU, AHCTF1 / Fold change vs veh, AHCTF1 / RFU, TFRC / Fold change vs veh, TFRC / RFU, ZDHHC17 / Fold change vs veh, ZDHHC17 / RFU, NOM1 / Fold change vs veh, NOM1 / RFU, ARL8B / Fold change vs veh, ARL8B / RFU, ZBTB11 / Fold change vs veh, ZBTB11 / RFU, TAMM41 / Fold change vs veh, TAMM41 / RFU, KIAA1704 /// LOC100996395 / Fold change vs veh, KIAA1704 /// LOC100996395 / RFU, ING1 / Fold change vs veh, ING1 / RFU, TRMT61B / Fold change vs veh, TRMT61B / RFU, FUBP3 / Fold change vs veh, FUBP3 / RFU, TP53 / Fold change vs veh, TP53 / RFU, TNKS2 / Fold change vs veh, TNKS2 / RFU, ZFP14 / Fold change vs veh, ZFP14 / RFU, ACTR2 / Fold change vs veh, ACTR2 / RFU, PPP3R1 / Fold change vs veh, PPP3R1 / RFU, PIK3R1 / Fold change vs veh, PIK3R1 / RFU, HNRNPA1 / Fold change vs veh, HNRNPA1 / RFU, RNF170 / Fold change vs veh, RNF170 / RFU, ZNF28 / Fold change vs veh, ZNF28 / RFU, RNGTT / Fold change vs veh, RNGTT / RFU, OGT / Fold change vs veh, OGT / RFU, BRD1 / Fold change vs veh, BRD1 / RFU, MARS / Fold change vs veh, MARS / RFU, ZNF655 / Fold change vs veh, ZNF655 / RFU, FAHD1 / Fold change vs veh, FAHD1 / RFU, BDP1 / Fold change vs veh, BDP1 / RFU, LRRCC1 / Fold change vs veh, LRRCC1 / RFU, ARID1A / Fold change vs veh, ARID1A / RFU, ZNF146 / Fold change vs veh, ZNF146 / RFU, ZNF330 / Fold change vs veh, ZNF330 / RFU, GPN3 / Fold change vs veh, GPN3 / RFU, C9orf123 / Fold change vs veh, C9orf123 / RFU, N4BP2L2 / Fold change vs veh, N4BP2L2 / RFU, ARFIP1 / Fold change vs veh, ARFIP1 / RFU, FAM179B / Fold change vs veh, FAM179B / RFU, BCL10 / Fold change vs veh, BCL10 / RFU, UHRF1BP1L / Fold change vs veh, UHRF1BP1L / RFU, BET1 / Fold change vs veh, BET1 / RFU, CNOT2 / Fold change vs veh, CNOT2 / RFU, ZNF268 / Fold change vs veh, ZNF268 / Fold change vs veh, ZNF507 / RFU, DGCR2 / Fold change vs veh, DGCR2 / RFU, WDSUB1 / Fold change vs veh, WDSUB1 / Fold change vs veh, HSP90B1 /// MIR3652 / RFU, ADSS / Fold change vs veh, ADSS / RFU, GK / Fold change vs veh, GK / RFU, ZNF148 / Fold change vs veh, ZNF148 / RFU, TAF9 / Fold change vs veh, TAF9 / RFU, SLC1A5 / Fold change vs veh, SLC1A5 / RFU, SLMO2 / Fold change vs veh, SLMO2 / RFU, ABCC4 / Fold change vs veh, ABCC4 / RFU, LOC101060439 /// RAP1B / Fold change vs veh, LOC101060439 /// RAP1B / RFU, RFX7 / Fold change vs veh, RFX7 / RFU, GTPBP10 / Fold change vs veh, GTPBP10 / RFU, CNEP1R1 / Fold change vs veh, CNEP1R1 / RFU, BIVM-ERCC5 /// ERCC5 / Fold change vs veh, BIVM-ERCC5 /// ERCC5 / RFU, ILF3 / Fold change vs veh, ILF3 / RFU 11762660_at / Fold change /veh 11762660_at / RFU VCAN (11757783_s_at) / Fold change /veh VCAN (11757783_s_at) / RFU DDX43 (11728927_at) / Fold change /veh DDX43 (11728927_at) / RFU KRT8 (11758188_x_at) / Fold change /veh KRT8 (11758188_x_at) / RFU NKD1 (11759106_at) / Fold change /veh NKD1 (11759106_at) / RFU SRD5A1 (11742802_a_at) / Fold change /veh SRD5A1 (11742802_a_at) / RFU TPSAB1 /// TPSB2 (11721975_s_at) / Fold change /veh TPSAB1 /// TPSB2 (11721975_s_at) / RFU GSTM3 (11746129_a_at) / Fold change /veh GSTM3 (11746129_a_at) / RFU IL23R (11737362_x_at) / Fold change /veh IL23R (11737362_x_at) / RFU TMEM51 (11727254_a_at) / Fold change /veh TMEM51 (11727254_a_at) / RFU PIWIL2 (11732686_x_at) / Fold change /veh PIWIL2 (11732686_x_at) / RFU ORM1 (11744905_x_at) / Fold change /veh ORM1 (11744905_x_at) / RFU CCDC152 (11743942_at) / Fold change /veh CCDC152 (11743942_at) / RFU ECM1 (11717891_a_at) / Fold change /veh ECM1 (11717891_a_at) / RFU IL23R (11748794_a_at) / Fold change /veh IL23R (11748794_a_at) / RFU TNFAIP8L3 (11732012_x_at) / Fold change /veh TNFAIP8L3 (11732012_x_at) / RFU MBOAT4 (11741988_at) / Fold change /veh MBOAT4 (11741988_at) / RFU 11764193_at / Fold change /veh 11764193_at / RFU TMEM53 (11763286_at) / Fold change /veh TMEM53 (11763286_at) / RFU MAGEB2 (11727129_at) / Fold change /veh MAGEB2 (11727129_at) / RFU TMEM200A (11744735_a_at) / Fold change /veh TMEM200A (11744735_a_at) / RFU CCDC152 (11751479_a_at) / Fold change /veh CCDC152 (11751479_a_at) / RFU FAM211A (11726209_a_at) / Fold change /veh FAM211A (11726209_a_at) / RFU RGS16 (11746705_a_at) / Fold change /veh RGS16 (11746705_a_at) / RFU VCAN (11755009_s_at) / Fold change /veh VCAN (11755009_s_at) / RFU RHOB (11743442_s_at) / Fold change /veh RHOB (11743442_s_at) / RFU RGS16 (11720943_a_at) / Fold change /veh RGS16 (11720943_a_at) / RFU RGS16 (11720944_at) / Fold change /veh RGS16 (11720944_at) / RFU, VPS4B / Fold change vs veh, VPS4B / RFU, CREB1 / Fold change vs veh, CREB1 / RFU, DNAJC13 / Fold change vs veh, DNAJC13 / RFU, GNAQ / Fold change vs veh, GNAQ / RFU, CDK5R1 / Fold change vs veh, CDK5R1 / RFU, ZRANB3 / Fold change vs veh, ZRANB3 / RFU, CUL4A / Fold change vs veh, CUL4A / RFU, CCNY / Fold change vs veh, CCNY / RFU, UFL1 / Fold change vs veh, UFL1 / RFU, COG3 / Fold change vs veh, COG3 / RFU, DIAPH2 / Fold change vs veh, DIAPH2 / RFU, SKA2 / Fold change vs veh, SKA2 / RFU, AFF3 / Fold change vs veh, AFF3 / RFU, LMF1 / Fold change vs veh, LMF1 / RFU, IPO11 / Fold change vs veh, IPO11 / RFU, DFFB / Fold change vs veh, DFFB / RFU, FOXP1 / Fold change vs veh, FOXP1 / RFU, CARD8 / Fold change vs veh, CARD8 / RFU, STRN3 / Fold change vs veh, STRN3 / RFU, ADK / Fold change vs veh, ADK / RFU, RASSF2 / Fold change vs veh, RASSF2 / RFU, WIPF1 / Fold change vs veh, WIPF1 / RFU, LARP1B / Fold change vs veh, LARP1B / RFU, RASA1 / Fold change vs veh, RASA1 / RFU, RB1 / Fold change vs veh, RB1 / RFU, PPFIA1 / Fold change vs veh, PPFIA1 / RFU, MAT2A / Fold change vs veh, MAT2A / RFU, CCT5 / Fold change vs veh, CCT5 / RFU, WDR92 / Fold change vs veh, WDR92 / RFU, CUX1 / Fold change vs veh, CUX1 / RFU, TTC7A / Fold change vs veh, TTC7A / RFU, TMEM135 / Fold change vs veh, TMEM135 / RFU, DEPTOR / Fold change vs veh, DEPTOR / RFU, CPM / Fold change vs veh, CPM / RFU, DNAJB6 / Fold change vs veh, DNAJB6 / RFU, CACNA2D3 / Fold change vs veh, CACNA2D3 / RFU, DTX4 / Fold change vs veh, DTX4 / RFU, TFCP2 / Fold change vs veh, TFCP2 / RFU, GMCL1 /// GMCL1P1 / Fold change vs veh, GMCL1 /// GMCL1P1 / RFU, AEBP2 / Fold change vs veh, AEBP2 / RFU, SNHG1 /// SNORD22 /// SNORD25 /// SNORD26 /// SNORD27 /// SNORD28 /// SNORD29 /// SNORD31 / Fold change vs veh, SNHG1 /// SNORD22 /// SNORD25 /// SNORD26 /// SNORD27 /// SNORD28 /// SNORD29 /// SNORD31 / Fold change (Aza/veh), C12orf56 (ProbeSet 11735607_a_at) / Fold change (ACY-1035/veh), C12orf56 (ProbeSet 11735607_a_at) / Fold change (Aza/veh), FGFR1OP (ProbeSet 11751329_s_at) / Fold change (ACY-1035/veh), FGFR1OP (ProbeSet 11751329_s_at) / Fold change (Aza/veh), VPS36 (ProbeSet 11739960_a_at) / Fold change (ACY-1035/veh), VPS36 (ProbeSet 11739960_a_at) / RFU SYPL1 (11715823_x_at) / Fold change /veh SYPL1 (11715823_x_at) / RFU IGFBP7 (11715501_s_at) / Fold change /veh IGFBP7 (11715501_s_at) / RFU REEP3 (11722064_at) / Fold change /veh REEP3 (11722064_at) / RFU IGLL1 (11728026_x_at) / Fold change /veh IGLL1 (11728026_x_at): dose or concentration left out as unconfirmed
# Settings: ProbeSet 11718569_a_at; LIST D
compound,measurement,value
Nc1ccc(-c2cccs2)cc1NC(=O)c1ccc2c(c1)cc(C1CC1)n2CCN1CCOCC1 [ACY-1035],"RFU, WIPF1",108.27 RFU

# — paper PMC5218480 (PLoS ONE, 2017)
